Experimental data from article PMC11200626, “In Vitro Biological Activities of Hesperidin-Related Compounds with Different Solubility” (Antioxidants, 2024).
In brackets after ≈: the same amount, converted by molar mass. Read-outs that look alike come from different tables or passages of the source.

How the values were obtained:
[1] = DPPH radical scavenging assay; conditions: for IC50: 0.2 mM DPPH in ethanol, 37 °C, 30 min, read-out: IC50 representing 50% of DPPH radical scavenging
Experimental: Measurements of DPPH radical scavenging activity were performed based on the method described by Ratha et al. and Blois, with slight modifications. Briefly, DPPH was dissolved in absolute ethanol to 0.2 mM, and 20 μL of the diluted sample was added to 180 μL of the DPPH solution. The reaction was performed at 37 °C for 30 min to stabilize the color, and the absorbance of the reaction solution was measured at 520 nm using a microplate reader (Epoch2, Bio Tek, Winooski, VT, USA). The DPPH radical scavenging activity was calculated using the following formula. Ascorbic acid was used as a positive control. DPPH radical scavenging activity%=A−B/A×100 where A is the absorbance of the reaction solution without a sample, and B is the absorbance of the reaction solution with a sample.

[2] = β-carotene bleaching assay; conditions: for IC50: β-carotene/linoleic acid emulsion, 50 °C, 2 h
Experimental: Measurements of the inhibition activity of β-carotene oxidation were performed using the method described by Wanasundara et al. and Hidalgo et al. with slight modifications. Briefly, a mixture of β-carotene and linoleic acid was prepared by dissolving 0.2 mg of β-carotene in 1 mL of chloroform and mixing this solution with 200 mg of Tween 20 containing 20 mg of linoleic acid. After removing the chloroform from the mixture in a rotary evaporator at 50 °C, 100 mL of deionized water was added to prepare an emulsion. The diluted sample (100 μL) was mixed with 900 μL of the prepared emulsion and the absorbance was measured immediately at 470 nm. Then, after a reaction at 50 °C for 2 h, the absorbance was measured again at 470 nm. Antioxidant activity was evaluated as a percent of oxidation inhibition compared to the untreated group sample. As a positive control, BHT (butylated hydroxytoluene) was used in the experiment. β−Carotene bleaching inhibition activity%=A0−At−(B0−Bt)/A0−At×100 where A0 is the initial absorbance without a sample, At is the final absorbance without a sample, B0 is the initial absorbance with a sample, and Bt is the final absorbance with a sample.

IL-6 in HaCaT cells = assay: Cellular IL-6 levels after UV irradiation (ELISA); assay type: cell-based, Human; conditions: UV 10 mJ/cm^2, 24 h, tested concentrations up to 25 μM
Experimental: (§1) Cellular levels of TNF-α and IL-6 were measured in HaCaT cells after the addition of various concentrations of HTL, HT, HD, and HDG under UV irradiation. The cell culture and sample treatment conditions for the TNF-α and IL-6 assay were the same as those used in the NO assay. The TNF-α and IL-6 contents in the media were measured, respectively, using commercial detection kits according to the manufacturer’s protocols. The absorbance was measured at 450 nm in the same microplate reader as above.

HaCaT cells = assay: MTT cell viability / cytotoxicity assay; conditions: 24 h, tested 12.5–200 μM
Experimental: The keratinocyte HaCaT cell line was obtained from AddexBio (SanDiego, CA, USA). The cells were maintained in DMEM supplemented with 10% FBS and 1% of penicillin/streptomycin under a humidified atmosphere condition of 5% CO2 at 37 °C. The cytotoxicity of HD and the related compounds was assessed by MTT assay. Cells were seeded in 96-well plates at a density of 2 × 10^4 cells/well and incubated for 24 h at 37 °C. Each sample of HTL, HT, HD, and HDG was dissolved in DMSO as a stock solution (0.1 M). […] After incubation for 24 h, the culture medium was removed and MTT solution (100 μL) was added to the well. The mixture was kept at 37 °C for 2 h, then DMSO was added to the reaction mixture and the absorbance at 540 nm was measured in a microplate reader (Epoch2, Bio Tek, Winooski, VT, USA). Cell viability was calculated as a percentage of difference in absorbance between control and test samples.

[3] = n-octanol–water partition coefficient; assay type: physicochemical; conditions: 500 μM sample, 20 h at 20 °C, HPLC, mean ± SD (n = 3); for logP at 20 h: n-octanol/water, read-out: Log Po/w (n-octanol–water partition coefficient) (converted)
Experimental: The hydrophobic/hydrophilic properties were investigated by measuring octanol–water partition coefficients. Octanol–water partition coefficients of the four hesperidin-related compounds were determined by the method described in the previous study. Briefly, samples (500 μM) were mixed in deionized water with an equal volume of n-octanol, and then the mixture was kept for 20 h at 20 °C in the dark to reach partition equilibrium. The concentration of each sample was determined by HPLC, and the partition coefficient (log P) was calculated as the ratio of the concentration in the n-octanol phase to the concentration in the water phase. Partition coefficient LogP=LogCoctanol/[C]water where [C]n-octanol is the concentration of a compound in the n-octanol phase, and [C]water is the concentration of a compound in the water phase.

[4] = Water solubility (in words); assay type: physicochemical
[5] = system: nitric oxide (NO) in HaCaT cells; assay: Cellular NO levels after UV irradiation; assay type: cell-based; conditions: UV 10 mJ/cm^2, 24 h; for NO levels (in words): tested up to 50 μM; for NO production (in words): at 25 μM
Experimental: Cellular NO levels were determined as an inflammatory intermediate in HaCaT cells. […] Then, cells with or without samples were irradiate with 10 mJ/cm^2 of UV rays at 302 nm using a UV irradiator (UV Crosslinker CL-1000M, UVP, Upland, CA, USA). […] After 24 h incubation, the NO content in the media was measured using an NO assay kit according to the manufacturer’s experimental protocol. The absorbance was measured at 540 nm in the same microplate reader as above.

Candida albicans = assay: MIC, broth micro-dilution with resazurin; assay type: cell-based, Candida albicans (KCCM 50235); conditions: read-out: MIC Value
Experimental: (§2) Antimicrobial capacity was evaluated against some bacteria and yeast known to be major skin resident microorganisms. Staphylococcus aureus (KCCM 11335) was cultivated on TS agar, and Cutibacterium acnes (KCTC 25526) was cultivated on RCM agar in an anaerobic jar (Rec. Jar, Mitsubishi Gas Chemical Co., Tokyo, Japan) with anaerobic gas packs. Candida albicans (KCCM 50235) was cultivated on YM agar, and Malassezia furfur (KCTC 7545) was cultivated on MLN agar. All the microbes were cultivated at 35 °C.
(§3) For the determination of MIC, S. aureus was cultivated in TS broth, and C. acnes was cultivated in RCM medium in an anaerobic jar with gentle shaking. C. albicans was cultivated in an RPMI-1640 medium supplemented with L-glutamine, and M. furfur was cultivated in an RPMI medium supplemented with 2% oleic acid, 0.5% glycerol, 0.5% Tween 60, and 0.2% sodium bicarbonate. All the microbes were cultivated at 35 °C, and the inoculum size for MICs was 5 × 10^5 cells/mL for S. aureus, and 1.5 × 10^5 cells/mL for C. acnes, C. albicans, and M. furfur, respectively.
MIC values were determined by the broth micro-dilution method with some modifications. Briefly, the culture broth of each microorganism was diluted with the same medium. Two-fold serial dilutions of HTL, HT, HD, and HDG ranging from 4000 to 62.5 μg/mL (depending on the microorganism tested) were performed in 96 well plates. After incubation for sufficient growth, the resazurin solution (1 mg/mL, 10 µL) was added to each well and the plate was incubated for 2 h. The MIC value for a microorganism was determined as the lowest concentration of the tested compound that prevented the color change of resazurin (blue to pink).

TNF-α in HaCaT cells = assay: Cellular TNF-α levels after UV irradiation (ELISA); assay type: cell-based, Human; conditions: UV 10 mJ/cm^2, 24 h, tested concentrations up to 25 μM
Experimental: as §1

Cutibacterium acnes = assay: MIC, broth micro-dilution with resazurin; assay type: cell-based, Cutibacterium acnes (KCTC 25526); conditions: RCM medium, anaerobic, 35 °C, tested up to 4000 μg/mL
Experimental: as §2, §3
(§4) MIC values were determined by the broth micro-dilution method with some modifications. Briefly, the culture broth of each microorganism was diluted with the same medium. […] The MIC value for a microorganism was determined as the lowest concentration of the tested compound that prevented the color change of resazurin (blue to pink).

Staphylococcus aureus = assay: MIC, broth micro-dilution with resazurin; assay type: cell-based, Staphylococcus aureus (KCCM 11335); conditions: TS broth, 35 °C, tested up to 4000 μg/mL
Experimental: as §2, §3, §4

Malassezia furfur = assay: MIC, broth micro-dilution with resazurin; assay type: cell-based, Malassezia furfur (KCTC 7545); conditions: supplemented RPMI, 35 °C, tested up to 4000 μg/mL
Experimental: as §2, §3, §4

[6] = RPMI-1640, 35 °C, tested up to 4000 μg/mL

For O=C1O[C@H]([C@@H](O)CO)C(O)=C1O [Ascorbic acid, reference compound], the “DPPH radical scavenging activity” value ([1]; at a concentration of 50 μM, positive control) was 48.74%.
In the case of Cc1cc(C(C)(C)C)c(O)c(C(C)(C)C)c1 [BHT, butylated hydroxytoluene, reference compound], the “β-carotene bleaching inhibitory activity” value ([2]; at a concentration of 25 μM, positive control) is reported as 47.08%.
With COc1ccc(C2CC(=O)c3c(O)cc(O[C@@H]4O[C@H](CO[C@@H]5O[C@@H](C)[C@H](O)[C@@H](O)[C@H]5O)[C@@H](O)[C@H](O)[C@H]4O)cc3O2)cc1O (stereo partly shown) [HD, hesperetin 7-rutinoside] the IC50 [2] was 260.8 ± 2.55 µM, the “effect on IL-6 production (in words)” value (IL-6 in HaCaT cells) was “Drastic effects were not observed” and the “concentration showing cytotoxic effects / cell death” value (HaCaT cells) was 100~200 μM. The IC50 [1] was 1409 ± 3.43 µM, the logP at 20 h [3] was 2.13 ± 0.03 and the “water solubility (in words)” value [4] was “poorly soluble in water”. The “NO levels (in words)” value [5] was “reduced NO levels at higher concentrations”, the MIC (Candida albicans) was 2000 µg/mL (≈ 3280 µM) and the “effect on TNF-α production (in words)” value (TNF-α in HaCaT cells) was “Drastic effects were not observed”.
With COc1ccc(C2CC(=O)c3c(O)cc(O[C@@H]4O[C@H](CO[C@@H]5O[C@@H](C)[C@H](O)[C@@H](O)[C@H]5O)[C@@H](O[C@H]5O[C@H](CO)[C@@H](O)[C@H](O)[C@H]5O)[C@H](O)[C@H]4O)cc3O2)cc1O (stereo partly shown) [HDG, hesperidin glucoside] the IC50 [2] was 267 ± 2.69 µM, the “effect on IL-6 production (in words)” value (IL-6 in HaCaT cells) was “Drastic effects were not observed” and the “concentration showing cytotoxic effects / cell death” value (HaCaT cells) was > 200 µM. For the same molecule, the “cytotoxicity (in words)” value (HaCaT cells) was “much less cytotoxicity than the other compounds”, the IC50 [1] was 1408 ± 3.73 µM and the logP at 20 h [3] was -3.45. The “water solubility (in words)” value [4] was “highly soluble in water”, the “NO levels (in words)” value [5] was “reduced NO levels at higher concentrations” and the MIC (Candida albicans; [6]) was 2000 µg/mL (≈ 2590 µM). For the same molecule, the “effect on TNF-α production (in words)” value (TNF-α in HaCaT cells) was “Drastic effects were not observed”.
With COc1ccc([C@@H]2CC(=O)c3c(O)cc(O)cc3O2)cc1O [HT, hesperetin] the MIC (Cutibacterium acnes) was 1000 µg/mL (≈ 3310 µM), the IC50 [2] was 110 ± 3.74 µM and the “concentration showing cytotoxic effects / cell death” value (HaCaT cells) was 100~200 μM. For the same molecule, the IC50 [1] was 893.1 ± 1.67 µM, the logP at 20 h [3] was 2.59 and the MIC (Staphylococcus aureus) was 2000 µg/mL (≈ 6620 µM). For the same molecule, the “water solubility (in words)” value [4] was “hardly soluble in water”, the “NO production (in words)” value [5] was “markedly decreased” and the MIC (Candida albicans; [6]) was 500 µg/mL (≈ 1650 µM).
CCCCCCCCCCCC(=O)Oc1cc(O)c2c(c1)OC(c1ccc(OC)c(O)c1)CC2=O (stereo not shown) [HTL, hesperetin laurate] showed an MIC (Cutibacterium acnes) of 1000 µg/mL (≈ 2060 µM), an IC50 [2] of 105 ± 2.01 µM and an MIC (Malassezia furfur) of 1000 µg/mL (≈ 2060 µM). For the same molecule, the “effect on IL-6 production (in words)” value (IL-6 in HaCaT cells) was “highest reducing effect”, the “cytotoxicity (in words)” value (HaCaT cells) was “induced cell death at relatively low concentrations” and the IC50 [1] was 899.1 ± 2.52 µM. The “Log Po/w (n-octanol–water partition coefficient)” value [3] was 7.08 ± 0.06, the logP at 20 h [3] was 7.28 ± 0.06 and the MIC (Staphylococcus aureus) was 2000 µg/mL (≈ 4130 µM). For the same molecule, the “water solubility (in words)” value [4] was “extremely insoluble in water”, the “NO production (in words)” value [5] was “markedly decreased” and the MIC (Candida albicans; [6]) was 250 µg/mL (≈ 516 µM). The “effect on TNF-α production (in words)” value (TNF-α in HaCaT cells) was “highest reducing effect”.
